Measurements taken from patent US9000183B2, “Cyclohexane-1,2′-indene-1′,2″-imidazol compounds and their use as BACE inhibitors” (AstraZeneca AB, priority 2012, dated 2015).

How the values were obtained:
[1] = molecular target: T1, human β-Secretase (Homo sapiens (Human), UniProt P56817); assay: Diluted TR-FRET assay; assay type: biochemical; settings: 50 times less enzyme, 6.5 h reaction time; read-out: IC50 in TR-FRET assay (IC50 from the diluted FRET assay)
Protocol: (§1) The cDNA for the soluble part of the human β-Secretase (AA 1-AA 460) was cloned using the ASP2-Fc10-1-IRES-GFP-neoK mammalian expression vector. The gene was fused to the Fc domain of IgG1 (affinity tag) and stably cloned into HEK 293 cells.
(§2) The enzyme (truncated form) was diluted to 6 μg/mL (stock 1.3 mg/mL) and the TruPoint BACE1 Substrate to 200 nM (stock 120 μM) in reaction buffer (NaAcetate, chaps, triton x-100, EDTA pH4.5). Enzyme and compound in dimethylsulphoxide (final DMSO concentration 5%) was mixed and pre-incubated for 10 minutes at RT. Substrate was then added and the reaction was incubated for 15 minutes at RT. The reaction was stopped with the addition of 0.35 vol Stop solution (NaAcetate, pH 9). The fluorescence of the product was measured on a Victor II plate reader with excitation wavelengths of 340-485 nm and emission wavelengths of 590-615 nm. […] The dimethylsulphoxide control, instead of test compound, defined the 100% activity level and 0% activity was defined by wells lacking enzyme (replaced with reaction buffer) or by a saturating dose of a known inhibitor, 2-amino-6-[3-(3-methoxyphenyl)phenyl]-3,6-dimethyl-5H-pyrimidin-4-one.
Compounds with a high affinity were further tested in a diluted TR-FRET assay, conditions as described above for the TR-FRET assay, but with 50 times less enzyme and a 6.5 h long reaction time at r.t. in the dark.

[2] = system: sAPPβ release, SH-SY5Y cells; assay: sAPPβ release assay; assay type: cell-based; settings: 17 h incubation
Protocol: Thaw cells and seed at a conc. of around 10000 cells/well in DMEM/F-12 with Glutamax, 10% FCS and 1% non-essential amino acids to a 384-well tissue culture treated plate, […] cell susp/well. The cell plates were then incubated for 7-24 h at 37° C., 5% CO2. The cell medium was removed, followed by addition of 30 μL compound diluted in DMEM/F-12 with Glutamax, 10% FCS, 1% non-essential amino acids and 1% PeSt to a final conc. of 1% DMSO. The compounds were incubated with the cells for 17 h (overnight) at 37° C., 5% CO2. Meso Scale Discovery (MSD) plates were used for the detection of sAPPβ release. MSD sAPPβ plates were blocked in 1% BSA in Tris wash buffer (40 μL/well) for 1 h on shake at r.t. and washed 1 time in Tris wash buffer (40 μL/well). 20 μL of medium was transferred to the pre-blocked and washed MSD sAPPβ microplates, and the cell plates were further used in an ATP assay to measure cytotoxicity. The MSD plates were incubated with shaking at r.t. for 2 h and the media discarded. 10 μL detection antibody was added (1 nM) per well followed by incubation with shaking at r.t. for 2 h and then discarded. 40 μL Read Buffer was added per well and the plates were read in a SECTOR Imager.

[3] = molecular target: T1, human β-Secretase; assay: TR-FRET assay; assay type: biochemical
Protocol: The β-secretase enzyme used in the TR-FRET is prepared as follows:
as §1, §2

T1 sequence (P56817 22-460): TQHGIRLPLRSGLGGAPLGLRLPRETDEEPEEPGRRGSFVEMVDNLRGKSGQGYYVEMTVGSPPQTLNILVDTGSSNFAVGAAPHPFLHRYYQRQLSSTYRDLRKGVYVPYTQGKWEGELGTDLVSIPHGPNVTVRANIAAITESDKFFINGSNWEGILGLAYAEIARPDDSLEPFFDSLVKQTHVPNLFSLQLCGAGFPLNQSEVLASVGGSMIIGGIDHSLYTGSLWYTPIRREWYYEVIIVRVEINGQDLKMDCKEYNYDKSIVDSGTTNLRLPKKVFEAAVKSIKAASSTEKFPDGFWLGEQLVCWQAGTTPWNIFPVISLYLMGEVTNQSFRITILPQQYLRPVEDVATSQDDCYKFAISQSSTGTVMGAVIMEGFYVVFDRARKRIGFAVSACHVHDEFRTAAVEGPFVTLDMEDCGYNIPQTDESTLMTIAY

IC50 [1]	IC50 [2]	IC50 [3]	IC50 ([2]; Homo sapiens)	SMILES
2.4 nM	–	–	–	CO[C@H]1CC[C@]2(CC1)Cc1cc(F)c(-c3cc(Cl)cc(C#N)c3)cc1[C@@]21N=C(C)C(N)=N1 (single isomer, unassigned; isomer 1) [6 Isomer 1]
13 nM	7.4 nM	–	–	CO[C@H]1CC[C@]2(CC1)Cc1cc(F)c(-c3cc(F)cc(C#N)c3)cc1[C@@]21N=C(C)C(N)=N1 (single isomer, unassigned; isomer 1) [9 Isomer 1]
–	–	> 4300 nM	–	CO[C@H]1CC[C@]2(CC1)Cc1cc(F)c(-c3cc(Cl)cc(C#N)c3)cc1[C@]21N=C(C)C(N)=N1 (single isomer, unassigned; isomer 2) [6 Isomer 2]
–	–	> 5000 nM	–	CO[C@H]1CC[C@]2(CC1)Cc1cc(F)c(-c3cc(F)cc(C#N)c3)cc1[C@]21N=C(C)C(N)=N1 (single isomer, unassigned; isomer 2) [9 Isomer 2]
–	–	1660 nM	–	CO[C@H]1CC[C@]2(CC1)Cc1cc(C)c(Br)cc1C21N=C(C)C(N)=N1 (some centres unmarked) [Example 1, (1r,4r)-6′-Bromo-4-methoxy-5′,5″-dimethyl-3′H-dispiro[cyclohexane-1,2′-indene-1′,2″-imidazol]-4″-amine]
15 nM	–	–	17 nM	CC#Cc1cncc(-c2cc3c(cc2C)C[C@]2(CC[C@@H](OC)CC2)C32N=C(C)C(N)=N2)c1 (some centres unmarked) [Example 2, (1r,4r)-4-Methoxy-5′,5″-dimethyl-6′-[5-(prop-1-yn-1-yl)pyridin-3-yl]-3′H-dispiro[cyclohexane-1,2′-indene-1′,2″-imidazol]-4″-amine]
24 nM	–	–	12 nM	CO[C@H]1CC[C@]2(CC1)Cc1cc(C)c(-c3cc(Cl)cc(C#N)c3)cc1C21N=C(C)C(N)=N1 (some centres unmarked) [Example 3, 3-[(1r,4r)-4″-Amino-4-methoxy-5′,5″-dimethyl-3′H-dispiro[cyclohexane-1,2′-indene-1′,2″-imidazol]-6′-yl]-5-chlorobenzonitrile]
–	–	516 nM	–	COC1CCC2(CC1)Cc1cc(F)c(Br)cc1C21N=C(C)C(N)=N1 (centres unmarked) [Example 4, 6′-Bromo-5′-fluoro-4-methoxy-5″-methyl-3′H-dispiro[cyclohexane-1,2′-indene-1′,2″-imidazol]-4″-amine]
–	–	23 nM	–	CO[C@H]1CC[C@]2(CC1)Cc1cc(F)c(-c3cc(Cl)cc(C#N)c3)cc1C21N=C(C)C(N)=N1 (some centres unmarked) [Example 5, 3-[(1s,4s)-4″-Amino-5′-fluoro-4-methoxy-5″-methyl-3′H-dispiro[cyclohexane-1,2′-indene-1′,2″-imidazol]-6′-yl]-5-chlorobenzonitrile]
–	–	36 nM	3 nM	CO[C@H]1CC[C@]2(CC1)Cc1cc(F)c(-c3cncc(Cl)c3)cc1C21N=C(C)C(N)=N1 (some centres unmarked) [Example 7, (1r,4r)-6′-(5-Chloropyridin-3-yl)-5′-fluoro-4-methoxy-5″-methyl-3′H-dispiro[cyclohexane-1,2′-indene-1′,2″-imidazol]-4″-amine]
–	–	23 nM	4.8 nM	CO[C@H]1CC[C@]2(CC1)Cc1cc(F)c(-c3cc(F)cc(C#N)c3)cc1C21N=C(C)C(N)=N1 (some centres unmarked) [Example 8, 3-[(1r,4r)-4″-Amino-5′-fluoro-4-methoxy-5″-methyl-3′H-dispiro[cyclohexane-1,2′-indene-1′,2″-imidazol]-6′-yl]-5-fluorobenzonitrile]
–	–	39 nM	–	CO[C@H]1CC[C@]2(CC1)Cc1cc(F)c(OCCCF)cc1C21N=C(C)C(N)=N1 (some centres unmarked) [Example 10, 5′-Fluoro-6′-(3-fluoropropoxy)-4-methoxy-5″-methyl-3′H-dispiro[cyclohexane-1,2′-indene-1′,2″-imidazol]-4″-amine]
